PMC13266999, “Designing Antibiotics with Inherent Resistance to Efflux as a Strategy to Revive Discovery against Multidrug-Resistant Pathogens” (Journal of Medicinal Chemistry, 2026)
Values after ≈ are worked out from the molar mass of the structure shown. Where two headings read alike, the source gives them in different places.

Columns and labels:
[1] = system: S. aureus; test: MIC (microbroth dilution); assay type: cell-based, Staphylococcus aureus
Summary of the method: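 Overnight stationary-phase cultures back-diluted and tested by broth microdilution with 2-fold compound series. MIC is lowest concentration with no visible growth, with OD600 also read. Separate runs included polymyxin B nonapeptide at 30 μg/mL final as outer-membrane permeabilizer.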

[2] = system: Pseudomonas aeruginosa; test: MIC (microbroth dilution); assay type: cell-based
Summary of the method: (§1)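 Microbroth dilution in tryptic soy broth; Streptococcus spp. in cation-adjusted Mueller Hinton broth with 2.5% lysed horse blood, inocula from overnight stationary-phase cultures. MIC is lowest concentration without visible growth, OD600 read. Parallel MICs run with 30 μg/mL polymyxin B nonapeptide (final) as outer-membrane permeabilizer.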

[3] = system: S. dysgalactiae; test: MIC (microbroth dilution); assay type: cell-based; details: for MIC: Streptococcus dysgalactiae
Summary of the method: as §1

[4] = system: S. pyogenes; test: MIC (microbroth dilution); assay type: cell-based, Streptococcus pyogenes; details: for MIC: Streptococcus pyogenes
Experimental: All bacteria were maintained on tryptic soy agar (TSA), except Streptococcus spp., which were maintained on Columbia agar plates containing 5% horse blood. All bacterial assays were carried out in tryptic soy broth (TSB), except for Streptococcus spp. which were grown in cation-adjusted Mueller Hinton broth containing 2.5% lysed horse blood. Bacteria were grown to stationary phase in liquid culture overnight, with shaking at 200 rpm, before being back diluted to the relevant starting concentration for each assay below. MICs were measured by the microbroth dilution method. […] Absorbance at OD600 was read on a CLARIOstar spectrophotometer (BMG Labtech) and the MIC was defined as the minimum concentration of compound where no visible growth was detected. The compounds were prepared as a DMSO stock and equivalent concentrations of DMSO had no effect on bacterial growth. MICs were also performed in the presence of the outer membrane permeator, polymyxin b nonapeptide (PMBN) following the same MIC method but with the following variation. The 2-fold dilution series of compound was prepared as above, then 50 μL of PMBN at a final concentration of 30 μg/mL was added to relevant wells, while 50 μL/well of blank media was added to the remaining wells. Bacteria were then added at 50 μL/well for a starting concentration as above. Thirty μg/mL of PMBN had no effect on bacterial growth. The MICs were read and defined as above. All animal procedures were performed by the contract research organization Pharmacology Discovery Services Taiwan in accordance with the Guide for the Care and Use of Laboratory Animals. The procedures were approved by the Institutional Ethics Committee of Pharmacology Discovery Services Taiwan, Ltd. (approval no. AB127662), in compliance with animal welfare legislation in Taiwan.

[5] = molecular target: T1, GyrA S84L mutant DNA gyrase (Staphylococcus aureus, UniProt P0A0K8+P20831, S84L); test: DNA gyrase supercoiling inhibition assay; assay type: biochemical, S. aureus
T1 construct: purchased Inspiralis Ltd. (Norwich, UK)
Summary of the method: (§2)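 Supercoiling of 0.5 μg relaxed […] DNA by 1U gyrase was run with compound in 1% DMSO for 30 min at 37 °C. Products were separated on 1% agarose gel and stained with ethidium bromide. Inhibition was calculated from supercoiled band intensity against a DMSO-only control.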

[6] = molecular target: T2, WT DNA gyrase (Staphylococcus aureus, UniProt P0A0K8+P20831); test: DNA gyrase supercoiling inhibition assay; assay type: biochemical, S. aureus
T2 construct: purchased Inspiralis Ltd. (Norwich, UK)
Summary of the method: as §2

C[C@H]1COc2c(N3CC[C@@H](Nc4ncccn4)C3)c(F)cc3c(=O)c(C(=O)O)cn1c23 [Compound 46, (S)-9-Fluoro-3-methyl-7-oxo-10-((R)-3-(pyrimidin-2-ylamino)pyrrolidin-1-yl)-2,3-dihydro-7H-[1,4]oxazino[2,3,4-ij]quinoline-6-carboxylic acid]
MIC ([1]; NCTC 13616): 0.5 to 1 µg/mL | fold difference in MIC, SA-1199B vs SA-1199 ([1]; NorA-overexpressing vs WT): 2 fold | MIC ([1]; SA-1199B (NorA-overexpressing)): 0.03 µg/mL (≈ 0.0705 µM) | MIC ([1]; Staphylococcus aureus, 1199, + 4% albumin, read-out: MIC): 0.03 to 0.06 µg/mL | MIC ([1]; Staphylococcus aureus, 1199b, + 4% albumin, read-out: MIC): 0.06 µg/mL | MIC ([1]; Staphylococcus aureus, ATCC9144, ATCC 9144, + 4% albumin, read-out: MIC): 0.03 to 0.06 µg/mL | MIC ([1]; Staphylococcus aureus, ATCC9144, ATCC 9144, read-out: MIC): ≤ 0.03 µg/mL | MIC ([1]; Staphylococcus aureus, NCTC13277, NCTC 13277, + 4% albumin, read-out: MIC): 1 to 2 µg/mL | MIC ([1]; Staphylococcus aureus, NCTC13277, NCTC 13277, read-out: MIC): 1 µg/mL (≈ 2.35 µM) | MIC ([1]; Staphylococcus aureus, NCTC13616, NCTC 13616, + 4% albumin, read-out: MIC): 1 to 2 µg/mL | MIC ([1]; Staphylococcus aureus, NCTC13616, NCTC 13616, read-out: MIC): 0.5 µg/mL (≈ 1.18 µM) | MIC ([1]; Staphylococcus aureus, SA-1199B (NorA-overexpressing)): 0.016 µg/mL (≈ 0.0376 µM) | fold potentiation compared to levofloxacin ([1]; fluoroquinolone-resistant NCTC 13616 and NCTC 13277): 16–32 fold | MIC ([2]; CAS4, + PMBN): 0.06 µg/mL | MIC ([2]; CFL 004 CRCN, + PMBN): 8 µg/mL | MIC ([2]; GH12, + PMBN): 0.5 µg/mL | MIC ([2]; NCTC 10662, + PMBN): ≤ 0.03 µg/mL | MIC ([2]; NCTC 12903, + PMBN): ≤ 0.03 µg/mL | MIC ([2]; NCTC 13359, + PMBN): 0.06 µg/mL | MIC ([2]; PAO1 ΔmexB, + PMBN): ≤ 0.03 µg/mL | MIC ([2]; Pseudomonas aeruginosa, CAS4, read-out: MIC): 8 µg/mL (≈ 18.8 µM) | MIC ([2]; Pseudomonas aeruginosa, GH12, read-out: MIC): > 32 µg/mL | MIC ([2]; Pseudomonas aeruginosa, GH100, read-out: MIC): 1 to 4 µg/mL (≈ 2.35 to 9.4 µM) | MIC ([2]; Pseudomonas aeruginosa, NCTC10662, NCTC 10662, read-out: MIC): 8 µg/mL (≈ 18.8 µM) | MIC ([2]; Pseudomonas aeruginosa, NCTC12903, NCTC 12903, read-out: MIC): 8 µg/mL (≈ 18.8 µM) | MIC ([2]; Pseudomonas aeruginosa, NCTC13359, NCTC 13359, read-out: MIC): 4 to 32 µg/mL (≈ 9.4 to 75.2 µM) | MIC ([2]; Pseudomonas aeruginosa, PAO1, PAO1, read-out: MIC): 4 to 8 µg/mL (≈ 9.4 to 18.8 µM) | MIC ([2]; Pseudomonas aeruginosa, CFL 004 CRCN, read-out: MIC): > 32 µg/mL | MIC50 ([2]; Pseudomonas aeruginosa, in the presence of PMBN, n = 7 strains): 0.06 µg/mL | MIC ([3]; 10238, read-out: MIC): 0.06 to 0.25 µg/mL (≈ 0.141 to 0.588 µM) | MIC ([3]; 13759, read-out: MIC): 0.06 µg/mL (≈ 0.141 µM) | MIC ([3]; 13762, read-out: MIC): 0.06 µg/mL (≈ 0.141 µM) | MIC [3]; 81251: 0.125 µg/mL (≈ 0.294 µM) | MIC [3]; 81553: 0.125 µg/mL (≈ 0.294 µM) | MIC [3]; 84143: 0.06 to 0.125 µg/mL (≈ 0.141 to 0.294 µM) | MIC [3]; 84557: 0.03 to 0.125 µg/mL (≈ 0.0705 to 0.294 µM) | MIC [3]; 84574: 0.06 to 0.125 µg/mL (≈ 0.141 to 0.294 µM) | MIC range ([3]; n = 8): 0.0625 to 0.125 µg/mL | MIC ([4]; 8198, read-out: MIC): ≤ 0.03 µg/mL | MIC [4]; 12048: 0.03 to 0.125 µg/mL (≈ 0.0705 to 0.294 µM) | MIC ([4]; 13736, read-out: MIC): 0.06 µg/mL (≈ 0.141 µM) | MIC [4]; 13737: 0.125 µg/mL (≈ 0.294 µM) | MIC [4]; 13738: 0.125 µg/mL (≈ 0.294 µM) | MIC [4]; 80661: 0.06 to 0.125 µg/mL (≈ 0.141 to 0.294 µM) | MIC [4]; 81017: 0.125 µg/mL (≈ 0.294 µM) | MIC ([4]; 82434, read-out: MIC): 0.06 µg/mL (≈ 0.141 µM) | MIC ([4]; 82896, read-out: MIC): 0.06 µg/mL (≈ 0.141 µM) | MIC [4]; 83581: 0.06 to 0.125 µg/mL (≈ 0.141 to 0.294 µM) | MIC ([4]; 84285, read-out: MIC): 0.06 µg/mL (≈ 0.141 µM) | MIC [4]; 86519: 0.125 µg/mL (≈ 0.294 µM) | MIC range ([4]; n = 12 isolates): 0.06 to 0.125 µg/mL | IC50 [5]: 95.3 µM | IC50 [6]: 7.92 µM
